Measured values from BindingDB's records for patent US12492186 (Bristol Myers Squibb, 2025).
pIC50: −log10 of the molar value.

What follows are compounds tested against T1, Interleukin-1 receptor-associated kinase 4 (Homo sapiens, UniProt Q9NWZ3) (assay: IRAK4 Inhibition Assay).
T1 sequence (Q9NWZ3 whole entry): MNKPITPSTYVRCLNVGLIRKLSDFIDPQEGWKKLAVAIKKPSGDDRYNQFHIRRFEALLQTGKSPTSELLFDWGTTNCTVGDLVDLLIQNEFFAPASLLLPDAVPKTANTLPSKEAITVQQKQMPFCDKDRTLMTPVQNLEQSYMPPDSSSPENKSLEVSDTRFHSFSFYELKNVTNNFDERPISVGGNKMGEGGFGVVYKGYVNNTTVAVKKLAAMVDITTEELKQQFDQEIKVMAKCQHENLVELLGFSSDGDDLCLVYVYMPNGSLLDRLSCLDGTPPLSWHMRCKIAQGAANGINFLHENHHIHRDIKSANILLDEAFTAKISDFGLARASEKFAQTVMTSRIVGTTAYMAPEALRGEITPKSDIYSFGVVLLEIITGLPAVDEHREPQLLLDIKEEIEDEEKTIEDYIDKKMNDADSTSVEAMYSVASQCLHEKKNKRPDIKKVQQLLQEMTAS
Procedure: The assays were performed in U-bottom 384-well plates. The final assay volume was 30 μL prepared from 15 μL additions of enzyme and substrates (fluoresceinated peptide and ATP) and test compounds in assay buffer (20 mM HEPES pH 7.2, 10 mM MgCl2, 0.015% Brij 35 and 4 mM DTT). The reaction was initiated by the combination of IRAK4 with substrates and test compounds. The reaction mixture was incubated at room temperature for 60 min. and terminated by adding 45 μL of 35 mM EDTA to each sample. The reaction mixture was analyzed on the Caliper LABCHIP 3000 (Caliper, Hopkinton, MA) by electrophoretic separation of the fluorescent substrate and phosphorylated product. Inhibition data were calculated by comparison to no enzyme control reactions for 100% inhibition and vehicle-only reactions for 0% inhibition. The final concentrations of reagents in the assays are ATP, 500 μM; FL-IPTSPITTTYFFFKKK peptide 1.5 μM; IRAK4, 0.6 nM; and DMSO, 1.6%.

pIC50	Compound
7.75	CC(O)CCNC(=O)c1cnc2ccc(-c3cn[nH]c3)cc2c1NC1CC(F)(F)C1 (stereo not drawn) [US12492186, Example 54]
7.82	CC(O)CCNC(=O)c1cnc2ccc(-c3cn[nH]c3)cc2c1NCC(F)F (stereo not drawn) [US12492186, Example 65]
8.32	CC(C)Nc1c(-c2cc(C3CCCCN3)no2)cnc2ccc(-c3cn[nH]c3)cc12 (stereo not drawn) [US12492186, Example 128]
